Source: ChEMBL document CHEMBL6078680, “Improving the Stability and Anti-Infective Activity of Sea Turtle AMPs Using Multiple Structural Modification Strategies” (J Med Chem, 2024)
Calls of active or inactive are those of the source. The rule behind the calls is not given here.

Columns and labels:
Escherichia coli [1] = assay: Antimicrobial activity against Escherichia coli ATCC 25922 assessed as reduction in microbial growth incubated for 18 hrs by broth microdilution method; type: functional
Acinetobacter baumannii [2] = assay: Antimicrobial activity against Acinetobacter baumannii ATCC19606 assessed as reduction in microbial growth incubated for 18 hrs by broth microdilution method; type: functional
Pseudomonas aeruginosa = assay: Antimicrobial activity against Pseudomonas aeruginosa CMCC10104 assessed as reduction in microbial growth incubated for 18 hrs by broth microdilution method; type: functional
Salmonella enteritidis = assay: Antimicrobial activity against Salmonella enterica subsp. enterica serovar Enteritidis ATCC 14028 assessed as reduction in microbial growth incubated for 18 hrs by broth microdilution method; type: functional
Staphylococcus aureus [3] = assay: Antimicrobial activity against Staphylococcus aureus CMCC 26003 assessed as reduction in microbial growth incubated for 18 hrs by broth microdilution method; type: functional
Clostridium perfringens = assay: Antimicrobial activity against Clostridium perfringens ATCC 13124 assessed as reduction in microbial growth incubated for 18 hrs by broth microdilution method; type: functional
Staphylococcus aureus [4] = assay: Antimicrobial activity against Staphylococcus aureus ATCC 43300 assessed as reduction in microbial growth incubated for 18 hrs by broth microdilution method; type: functional
Enterococcus faecalis = assay: Antimicrobial activity against Enterococcus faecalis ATCC 29217 assessed as reduction in microbial growth incubated for 18 hrs by broth microdilution method; type: functional
[5] = test system: Staphylococcus epidermidis; assay: Antimicrobial activity against Staphylococcus epidermidis assessed as reduction in microbial growth incubated for 18 hrs by broth microdilution method; type: functional
Staphylococcus aureus [6] = assay: Antimicrobial activity against Staphylococcus aureus 08032706 assessed as reduction in microbial growth incubated for 18 hrs by broth microdilution method; type: functional
[7] = Hemolytic activity at human Erythrocyte assessed as hemolysis at 100 microg/ml; type: toxicity, cell-based; conditions: erythrocytes, at 100 µg/mL, read-out: Activity
Peritoneal macrophage [8] = assay: Antiinflammatory activity in mouse Peritoneal macrophage cells assessed as inhibition of LPS-induced TNF-alpha production at 20 microg/ml incubated for 6 hrs by ELISA analysis; type: functional, cell-based; conditions: dose 20.0 µg/ml
Peritoneal macrophage [9] = assay: Antiinflammatory activity in mouse Peritoneal macrophage cells assessed as inhibition of LPS-induced IL-6 production at 20 microg/ml incubated for 6 hrs by ELISA analysis; type: functional, cell-based; conditions: dose 20.0 µg/ml
Escherichia coli [10] = assay: Drug resistance, ratio of MIC for Escherichia coli ATCC 25922 after 40 passages to MIC for Escherichia coli ATCC 25922 during first exposure; type: functional
Staphylococcus aureus [11] = assay: Antibiofilm activity against Staphylococcus aureus CMCC 26003 assessed as inhibition of biofilm formation incubated for 48 hrs by crystal violet staining based analysis; type: functional, organism-based
Acinetobacter baumannii [12] = assay: Antibiofilm activity against Acinetobacter baumannii ATCC 19606 assessed as inhibition of biofilm formation incubated for 48 hrs by crystal violet staining based analysis; type: functional, organism-based
Acinetobacter baumannii [13] = assay: Antibiofilm activity against Acinetobacter baumannii ATCC 19606 assessed as biofilm eradication incubated for 24 hrs by crystal violet staining based analysis; type: functional, organism-based
Staphylococcus aureus [14] = assay: Antibiofilm activity against Staphylococcus aureus CMCC 26003 assessed as reduction in biofilm formation at 0.5 times MIC incubated for 24 hrs by crystal violet staining based analysis; type: functional; design: scale not given: the % may be the effect or the level left
Staphylococcus aureus [15] = assay: Antibiofilm activity against Staphylococcus aureus CMCC 26003 assessed as biofilm eradication at 8 times MIC incubated for 24 hrs by crystal violet staining based analysis; type: functional
Acinetobacter baumannii [16] = assay: Antipersister-activity against Acinetobacter baumannii ATCC 19606 assessed as elimination of persister cells at 50 times MIC preincubated adherent persistent cells with colistin incubation for 24 hrs; type: functional
Cell membrane = assay: Disruption of cell membrane integrity in Escherichia coli ATCC 25922 assessed as cell membrane damage at 5 times MIC measured after 30 mins by scanning electron microscopic analysis; type: subcellular
Staphylococcus aureus [17] = assay: Antimicrobial activity against Staphylococcus aureus CMCC 26003 assessed as fold increase in MIC incubated for 18 hrs in presence of CCCP; type: functional
Escherichia coli [18] = assay: Antibacterial activity against Escherichia coli ATCC 25922 assessed as increase in intracellular ROS production at 2 to 5 times MIC by DCFH-DA staining based assay; type: functional, organism-based
Staphylococcus aureus [19] = assay: Antibacterial activity against Staphylococcus aureus CMCC 26003 assessed as increase in intracellular ROS production incubated for 1 hr by DCFH-DA staining based assay; type: functional, organism-based
Staphylococcus aureus [20] = assay: Bactericidal activity against Staphylococcus aureus CMCC 26003 assessed as bacterial eradication incubated at 0.5 hrs in presence of thiourea; type: functional, organism-based
Escherichia coli [21] = assay: Antibacterial activity against Escherichia coli ATCC 25922 at 1 times MIC in presence of exogenous DNA; type: functional, organism-based
[22] = Acute toxicity in BALB/c mouse assessed as mortality at 10 mg/kg, iv measured for 24 hrs; type: organism-based; conditions: in vivo, read-out: Activity
[23] = Acute toxicity in BALB/c mouse assessed as mortality at 15 mg/kg, iv measured for 24 hrs; type: organism-based; conditions: in vivo, read-out: Activity
[24] = Acute toxicity in BALB/c mouse assessed as mortality at 20 mg/kg, iv measured for 24 hrs; type: organism-based; conditions: in vivo, read-out: Activity
[25] = Acute toxicity in BALB/c mouse assessed as effect on ALT level at 10 mg/kg, iv measured for 24 hrs; type: organism-based; conditions: in vivo
Acinetobacter baumannii [26] = assay: In vivo antibacterial activity against Acinetobacter baumannii ATCC19606 infected in BALB/c mouse assessed as reduction in bacterial load in lung at 15 mg/kg, ip measured after 3 hrs; type: functional, organism-based
Acinetobacter baumannii [27] = assay: In vivo antibacterial activity against Acinetobacter baumannii ATCC19606 infected in BALB/c mouse assessed as reduction in bacterial load in kidney at 15 mg/kg, ip measured after 3 hrs; type: functional, organism-based
Acinetobacter baumannii [28] = assay: In vivo antibacterial activity against Acinetobacter baumannii ATCC19606 infected in BALB/c mouse assessed as reduction in bacterial load in liver at 15 mg/kg, ip measured after 12 hrs; type: functional, organism-based
Acinetobacter baumannii [29] = assay: In vivo antibacterial activity against Acinetobacter baumannii ATCC19606 infected in BALB/c mouse assessed as reduction in bacterial load in lung at 15 mg/kg, ip measured after 12 hrs; type: functional, organism-based
Acinetobacter baumannii [30] = assay: In vivo antibacterial activity against Acinetobacter baumannii ATCC19606 infected in BALB/c mouse assessed as reduction in bacterial load in kidney at 15 mg/kg, ip measured after 12 hrs; type: functional, organism-based

Compound: CC[C@H](C)[C@H](NC(=O)[C@@H](CCCNC(=N)N)NC(=O)[C@H](CO)NC(=O)[C@H](Cc1c[nH]cn1)NC(=O)[C@@H](CCCNC(=N)N)NC(=O)[C@H](CC(C)C)NC(=O)[C@@H](NC(=O)[C@@H](CCCNC(=N)N)NC(=O)CNC(=O)[C@H](CC(C)C)NC(=O)[C@H](CCC(N)=O)NC(=O)[C@@H](CCCCN)NC(=O)[C@@H](CCCNC(=N)N)NC(=O)[C@@H](NC(=O)[C@@H](CCCCN)NC(=O)[C@@H](CCCCN)NC(=O)[C@@H](N)Cc1ccccc1)C(C)C)C(C)C)C(=O)N[C@H](C(=O)N[C@H](C(=O)NCC(=O)NCC(=O)N[C@H](CCCNC(=N)N)C(=O)N[C@@H](CCSC)C(=O)N[C@H](CCCNC(=N)N)C(=O)N[C@@H](Cc1ccccc1)C(=O)O)C(C)C)[C@@H](C)O
- MIC (Escherichia coli [1]): 18.8 µg/mL
- MIC (Acinetobacter baumannii [2]): 18.8 µg/mL
- MIC (Pseudomonas aeruginosa): > 100 µg/mL
- MIC (Salmonella enteritidis): 37.5 µg/mL
- MIC (Staphylococcus aureus [3]): 75 µg/mL
- MIC (Clostridium perfringens): 18.8 µg/mL
- MIC (Staphylococcus aureus [4]): > 100 µg/mL
- MIC (Enterococcus faecalis): 37.5 µg/mL
- MIC [5]: 75 µg/mL
- MIC (Staphylococcus aureus [6]): 75 µg/mL
- hemolysis at 100 microg/ml [7]: < 5%
- Activity (Peritoneal macrophage [8]): Active
- Activity (Peritoneal macrophage [9]): Active
- Ratio (Escherichia coli [10]): 1
- Activity (Staphylococcus aureus [11]): Active
- Activity (Acinetobacter baumannii [12]): Active
- Activity (Acinetobacter baumannii [13]): Active
- Activity (Staphylococcus aureus [14]): 20%
- Activity (Staphylococcus aureus [15]): 50%
- Activity (Acinetobacter baumannii [16]): 60%
- Activity (Cell membrane): Active
- fold change (FC) (Staphylococcus aureus [17]): 32
- Activity (Escherichia coli [18]): Active
- Activity (Staphylococcus aureus [19]): Dose-dependent-effect
- Activity (Staphylococcus aureus [20]): Active
- Activity (Escherichia coli [21]): Active
- mortality at 24 h [22]: 0%
- mortality at 24 h [23]: 0%
- mortality at 24 h [24]: 33%
- Activity [25]: Non-toxic
- Activity (Acinetobacter baumannii [26]): Active
- Activity (Acinetobacter baumannii [27]): Active
- Activity (Acinetobacter baumannii [28]): Active
- Activity (Acinetobacter baumannii [29]): Active
- Activity (Acinetobacter baumannii [30]): Active
